# Entries after “also recorded” stand apart in the source; their conditions may differ.
# How the values were obtained:
# [1] = amifostine therapy, serious side-effect; cited from earlier work
# [2] = tested on: Radiation Induced Oral Mucositis in Hamsters; assay: Radiation induced oral mucositis in hamsters (left buccal pouch, single 40 Gy dose on Day 0); format: in vivo, Male LVG Syrian Golden Hamsters; settings: for maximum mean mucositis score: score scale 0-5
# Source text: Male LVG Syrian Golden Hamsters, 5 to 6 weeks old, weighing 87.7 to 97.1 g (Charles River Laboratories, US) at the commencement of the study, were used. An ear punch was used to number the animals individually. Approximately 8-10 animals were housed per cage. The animals were acclimatized for at least 3 days before experimentation. During this period, they were observed daily to ensure that the animals are in good condition. The animals that presented poor condition were rejected.
# Animals were randomly and prospectively divided into 5 groups: • i) Group 1: Animals (n=8) were administered with 5% w/v dextrose monohydrate intraperitoneally from Day 0 to Day 4 or from Day 0 to Day 9. • ii) Group 2: Animals (n=10) were administered with 10 mg/kg of compound A intraperitoneally from Day 0 to Day 4. • iii) Group 3: Animals (n=10) were administered with 20 mg/kg of compound A intraperitoneally from Day 0 to Day 4. • iv) Group 4: Animals (n=10) administered with 10 mg/kg of compound A intraperitoneally from Day 0 to Day 9. • v) Group 5: Animals (n=10) administered with 20 mg/kg of compound A intraperitoneally from day Day 0 to Day 9.
# Mucositis induction: The animals were anesthetized and the left buccal pouch was everted, fixed and isolated using a lead shield. The left buccal pouch mucosa of the animal was exposed to radiation at a rate of 2.0 Gy/minute. A single dose of radiation (40 Gy/dose) was administered to all animals on Day 0. Radiation was generated with 160 kilovolt potential source at a focal distance of 21 cm, hardened with a 0.35 mm Al filtration system. Animals of Group 2 to 5 were treated with compound A as per the schedule detailed above one hour prior to the radiation. The volume administered to all the above Groups was 0.2 mL/100 g.
# For evaluation of mucositis, the animals were anesthetized with an inhalation anesthetic and the left buccal pouch everted. Mucositis was scored visually using the following criteria for evaluation:
# Weight change and survival were also measured throughout the study.
# The significance of differences observed between the different treatment groups was evaluated by comparing the days with mucositis scores ≧3 and […] between groups using a chi-squared analysis.
# An analysis of the severity of mucositis was performed using Mann-Whitney rank sum analysis to compare the visual mucositis scores for each treatment group to the vehicle control on each day of the analysis.
# The percentage of animals in each group with ulcerative mucositis at each day of the study was evaluated.
# [3] = tested on: Radiation Induced Oral Mucositis; assay: Clinical study of compound A with external beam radiotherapy in squamous cell carcinoma of oral cavity, oropharynx and hypopharynx; format: in vivo
# Description: The compound A and external beam radiotherapy (EBRT) were administered for six weeks i.e., 2 cycles of compound A and […] of radiation. One, three weeks (21 days) cycle of combination regimen comprised of dosing compound A for days 1 to 5 and EBRT on days 1 to 5, 8 to 12 and 15 to 19. The combination treatment schedule is depicted in the following table:
# A] Dose of compound A: In the Phase I part of the clinical trial, 11 patients were enrolled and 100 mg/m^2/day of compound A was determined to be the maximum tolerated dose (MTD) as two dose limiting toxicities occurred at the higher dose of 140 mg/m^2/day. Additional 12 subjects were enrolled at the MTD dose level to confirm the safety and tolerability of that dose. B] Procedure: Compound A (100 mg/m^2/day) in 5% dextrose (200 mL) was administered to 19 patients as intravenous infusion over 30 minutes on days 1 to 5 of a 21 day cycle. After about 1.5 hours of infusion of compound A, the patients received EBRT (2 Grays per day for 5 days) to the affected body parts (primary tumor site and involved cervical lymph nodes) through linear accelerator. Patients continued to receive EBRT (2 Grays per day) on days 8-12 and 15-19. On days 6, 7, 13 and 14 patients were not infused with compound A, neither were exposed to radiotherapy.
# The procedure was repeated for cycle 2.
# At investigator's discretion, some patients were given additional radiation of up to 10 additional Grays (2 Grays per day for 5 days) commencing immediately after the completion of the prescribed radiation dose of 60 Grays. Total radiation dose for spinal cord was less than 48 Grays.
# The Common Terminology Criteria for Adverse Events (version 3) (version 3, Publish Date: Aug. 9, 2006) laid down by the National Cancer Institute for oral mucositis in radiation therapy was followed.
# [4] = 19 evaluable patients, 100 mg/m^2/day i.v. plus EBRT, CTCAE version 3
smiles,measurement,setting,value
"NCCCNCCSP(=O)(O)O [amifostine, Amifostine]","hypotension, share of patients",[1],62%
"CN1CC[C@@H](c2c(O)cc(O)c3c(=O)cc(-c4ccccc4Cl)oc23)[C@@H]1CO.Cl [Compound A, (+)-trans-2-(2-Chlorophenyl)-5,7-dihydroxy-8-(2-hydroxymethyl-1-methyl-pyrrolidin-3-yl)-chromen-4-one hydrochloride]",percent of days and number of days with ulcerative mucositis (score ≧3) compared to vehicle control,[2]; 10 mg/kg from Days 0 to 9,significantly reduced
same,maximum mean mucositis score,"[2]; Group 2: 10 mg/kg intraperitoneally Day 0 to Day 4, maximum on Day 18",3.0
same,maximum mean mucositis score,"[2]; Group 3: 20 mg/kg intraperitoneally Day 0 to Day 4, maximum on Day 16",3.0
same,"mucositis severity (visual mucositis scores vs vehicle control, Mann-Whitney rank sum)","[2]; Group 4: 10 mg/kg i.p. Day 0 to Day 9, Day 18 (p=0.073) and Day 28 (p=0.064)",strong trend of lower scores
same,"mucositis severity (visual mucositis scores vs vehicle control, Mann-Whitney rank sum)","[2]; Group 4: 10 mg/kg i.p. Day 0 to Day 9, Day 24 (p=0.002) and Day 26 (p=0.024), hydrochloride, 10 mg/kg",significant reductions in mucositis; also recorded: significant improvement in mucositis scores
same,reduction of percentage of animals with ulcerative mucositis (score ≧3) compared to Group 1,"[2]; Group 4: 10 mg/kg i.p. Day 0 to Day 9, Days 24 to 28, first of three values",72.7%
same,reduction of percentage of animals with ulcerative mucositis (score ≧3) compared to Group 1,"[2]; Group 4: 10 mg/kg i.p. Day 0 to Day 9, Days 24 to 28, second of three values",83.8
same,reduction of percentage of animals with ulcerative mucositis (score ≧3) compared to Group 1,"[2]; Group 4: 10 mg/kg i.p. Day 0 to Day 9, Days 24 to 28, third of three values",77.8%
same,percentage of animal days with a mucositis score of ≧3,"[2]; Group 4: 10 mg/kg i.p. Day 0 to Day 9, entire study duration, vehicle control 63.0%",43.5%
same,maximum mean mucositis score,"[2]; Group 4: 10 mg/kg intraperitoneally Day 0 to Day 9, maximum on Day 16",3.0
same,maximum mean mucositis score,"[2]; Group 5: 20 mg/kg intraperitoneally Day 0 to Day 9, maximum on Day 16",3.1
same,percent body weight change among groups,"[2]; Groups 1 to 5, one-way ANOVA",no significant difference
same,percentage of animal days with a mucositis score of ≧3 compared to vehicle control,"[2]; other 3 treatment groups (Groups 2, 3 and 5), chi-squared analysis",not significantly different
same,"radioprotective effect, compared with historical rates of serious RIM (Grade 3 and above, Trotti et al.)","[3]; 19 evaluable patients, 100 mg/m^2/day i.v. plus EBRT",has radioprotective effects
same,events of mucositis reported (all grades),"[3]; 19 evaluable patients, 100 mg/m^2/day i.v. plus EBRT 2 Grays per day, 2 cycles, CTCAE version 3",five
same,events of mild mucositis (Grade 1),[3]; [4],one
same,events of moderate mucositis (Grade 2),[3]; [4],one
same,events of moderate stomatitis (Grade 2),[3]; [4],two
same,events of severe mucositis (Grade 3),[3]; [4],one
same,maximum tolerated dose (MTD),"[3]; Phase I part, intravenous infusion days 1 to 5 of a 21 day cycle, with EBRT",100 mg/m^2/day
same,dose limiting toxicities,"[3]; human, in vivo",two

# — patent US20170071908A1, “PYRROLIDINE- SUBSTITUTED FLAVONE DERIVATIVES FOR PREVENTION OR TREATMENT OF ORAL MUCOSITIS” (priority 2012, published 2017)
